{"source": "patent US7049337B2", "about": "(Wayne State University, priority 2000, dated 2006)", "key": {"[1]": {"biological_target": "T1, human D2L receptor (Homo sapiens, UniProt P14416)", "T1 construct": "expressed in transfected cells; host or cells: HEK 293 cells, stably transfected (Watts and colleagues, Oregon Health Sciences University); membranes prepared from the cells", "T1 sequence (P14416 whole entry)": "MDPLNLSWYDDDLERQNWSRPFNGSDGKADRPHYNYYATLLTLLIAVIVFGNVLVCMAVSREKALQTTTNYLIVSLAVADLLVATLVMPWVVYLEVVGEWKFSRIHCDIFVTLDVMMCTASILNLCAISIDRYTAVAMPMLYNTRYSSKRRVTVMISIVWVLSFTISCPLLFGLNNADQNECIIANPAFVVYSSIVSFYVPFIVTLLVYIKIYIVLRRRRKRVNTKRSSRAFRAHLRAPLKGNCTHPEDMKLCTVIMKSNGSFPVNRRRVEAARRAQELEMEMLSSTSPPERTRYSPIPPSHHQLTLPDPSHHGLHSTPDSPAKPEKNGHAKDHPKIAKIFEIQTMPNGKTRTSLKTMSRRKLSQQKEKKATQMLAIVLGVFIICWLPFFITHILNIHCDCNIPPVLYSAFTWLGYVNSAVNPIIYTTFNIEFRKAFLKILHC", "experiment": "[3H]spiperone binding to cloned human D2L receptors in HEK 293 cell membranes", "protocol": "(§1) The target compounds synthesized were assayed for differential CNS activity by binding studies employing cloned human receptors expressed in HEK cells. […] The compounds were evaluated for their binding at the D2 and D3 receptors.\n(§2) Binding affinities of these novel compounds were assessed according to previously published procedures. V. J. Watts et al., EUR. J. PHARMACOL., 1993, 239,271; V. J. Watts et al., EUR. J. PHARMACOL., 1996, 50, 966. Human embryonic kidney (HEK) 293 cells were stably transfected with cDNA for the human D2L and D3 receptors by Watts and colleagues at Oregon Health Sciences University in accordance with published procedures; V. J. Watts, MOL. PHARMACOL, op. cit., and graciously shipped to the University of Illinois for receptor binding assays. Membranes were prepared from the cells as described previously, V. J. Watts et al., EUR. J. PHARMACOL., 1993, op. cit. […] (+)-Butaclamol (2 ,μM) was used to define nonspecific binding. Assays were terminated with a 24-pin Brandel harvester as described previously, M. E. A. Reith et al., BIOL. CHEM. 1986, 261, 7300. IC50 values were estimated by nonlinear regression analysis with the ALLFIT equation, and converted to inhibition constants (Ki) by the Cheng-Prusoff equation as in previous work, Reith et al., J. BIOL. CHEM., op. cit."}, "[2]": {"biological_target": "T2, human D3 receptor (Homo sapiens, UniProt P35462)", "T2 construct": "expressed in transfected cells; host or cells: HEK 293 cells, stably transfected (Watts and colleagues, Oregon Health Sciences University); membranes prepared from the cells", "T2 sequence (P35462 whole entry)": "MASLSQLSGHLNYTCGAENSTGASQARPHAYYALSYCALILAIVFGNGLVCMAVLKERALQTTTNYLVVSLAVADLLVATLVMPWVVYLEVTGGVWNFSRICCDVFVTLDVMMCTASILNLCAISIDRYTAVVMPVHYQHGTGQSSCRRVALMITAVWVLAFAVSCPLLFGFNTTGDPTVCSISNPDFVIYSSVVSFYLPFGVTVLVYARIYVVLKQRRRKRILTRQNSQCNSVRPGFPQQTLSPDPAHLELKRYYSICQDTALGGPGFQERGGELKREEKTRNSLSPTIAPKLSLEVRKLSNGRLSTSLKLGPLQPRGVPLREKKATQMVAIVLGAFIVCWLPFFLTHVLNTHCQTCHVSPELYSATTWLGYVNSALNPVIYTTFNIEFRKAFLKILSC", "experiment": "[3H]spiperone binding to cloned human D3 receptors in HEK 293 cell membranes", "details": "for D3 receptor activity compared with control, in words: displacing [3H]spiperone from D3 receptors in HEK cells, racemic compounds versus (+)-7-OH-DPAT; for D2L/D3L: ratio of Ki D2L to Ki D3; for Differential activity (D2L/D3) compared with control, in words: versus (+)-7-OH-DPAT control", "protocol": "as §1, §2"}, "[3]": {"details": "cloned human D2L in HEK cells, 0.4 nM [3H]spiperone, 1 h, 30° C., no GTP, mean ± spread (n)"}}, "note": "Read-outs that look alike come from different tables or passages of the source."}
{"smiles": "C#CCN(CCCC#N)C1CCc2ccc(O)cc2C1", "note": "(racemic) [Example 8, (R,S)-trans-7-Hydroxy-2-[N-propynyl-N-(3′-cyano-1′-propyl)amino]tetralin]", "values": [{"measurement": "Ki", "setting": "[1]; [3]", "value": 8310, "unit": "nM"}, {"measurement": "Ki", "setting": "[2]; cloned human D3 in HEK cells, 0.4 nM [3H]spiperone, 1 h, 30° C., no GTP, mean ± spread (n)", "value": "23.5 ± 4.7", "unit": "nM"}, {"measurement": "D3 receptor activity compared with control, in words", "setting": "[2]", "value": "about the same as the control"}, {"measurement": "D2L/D3L", "setting": "[2]", "value": 353}, {"measurement": "Differential activity (D2L/D3) compared with control, in words", "setting": "[2]", "value": "more than double the activity differential of the control"}]}
{"smiles": "C#CCN(CCc1ccc(F)cc1)C1CCc2ccc(O)cc2C1", "note": "(racemic) [Example 6, (R,S)-trans-7-Hydroxy-2-[N-propynyl-N-ethyl(4′-fluorophenyl)amino]tetralin]", "values": [{"measurement": "Ki", "setting": "[1]; [3]", "value": 1610, "unit": "nM"}, {"measurement": "Ki", "setting": "[2]", "value": "14.5 ± 4.1", "unit": "nM"}, {"measurement": "D2L/D3L", "setting": "[2]", "value": 111}, {"measurement": "Differential activity (D2L/D3) compared with control, in words", "setting": "[2]", "value": "about the same as the control"}]}
{"smiles": "C#CCN(CCCC)C1CCc2ccc(O)cc2C1", "note": "(racemic) [Example 4, (R,S)-trans-7-Hydroxy-2-[N-propynyl-N-(butyl-amino]tetralin]", "values": [{"measurement": "Ki", "setting": "[1]; [3]", "value": "534 ± 72", "unit": "nM"}, {"measurement": "Ki", "setting": "[2]", "value": "4.9 ± 1.2", "unit": "nM"}, {"measurement": "D3 receptor activity compared with control, in words", "setting": "[2]", "value": "about as active as the (+) isomer"}, {"measurement": "D2L/D3L", "setting": "[2]", "value": 108}, {"measurement": "Differential activity (D2L/D3) compared with control, in words", "setting": "[2]", "value": "slightly greater activity differential"}]}
{"smiles": "C#CCN(CC)C1CCc2ccc(O)cc2C1", "note": "(racemic) [Example 5, (R,S)-trans-7-Hydroxy-2-[N-propynyl-N-ethyl-amino]tetralin]", "values": [{"measurement": "Ki", "setting": "[1]; [3]", "value": 1490, "unit": "nM"}, {"measurement": "Ki", "setting": "[2]", "value": "13.8 ± 2.8", "unit": "nM"}, {"measurement": "D3 receptor activity compared with control, in words", "setting": "[2]", "value": "high activity, though not as high as the compound of Example 4 or the control"}, {"measurement": "D2L/D3L", "setting": "[2]", "value": 108}, {"measurement": "Differential activity (D2L/D3) compared with control, in words", "setting": "[2]", "value": "as high as the compound of Example 4"}]}
{"smiles": "C#CCN(CCc1cccs1)C1CCc2ccc(O)cc2C1", "note": "(racemic) [Example 7, (R,S)-trans-7-Hydroxy-2-[N-propynyl-N-ethyl(thienyl)-amino]tetralin]", "values": [{"measurement": "Ki", "setting": "[1]; read-out: D2L HEK Cells [^3H]spiperone, Ki, […] nM [3H]spiperone, 1 h, 30° C., no GTP, mean ± spread (n)", "value": 1700, "unit": "nM"}, {"measurement": "D3 receptor activity compared with control, in words", "setting": "[2]", "value": "about the same as the control"}, {"measurement": "D2L/D3L", "setting": "[2]", "value": 211}, {"measurement": "Ki", "setting": "[2]; read-out: D3 HEK Cells [^3H]spiperone, Ki, cloned human D3 in HEK cells, 0.4 nM [3H]spiperone, 1 h, 30° C., no GTP, mean ± spread (n)", "value": "8 ± 0.3", "unit": "nM"}, {"measurement": "Differential activity (D2L/D3) compared with control, in words", "setting": "[2]", "value": "more than double the activity differential of the control"}]}
